Nine compounds from ChEMBL document CHEMBL3763146 (J Med Chem, 2016) can be followed below.

pEC50, pIC50: −log10 of the molar value.

In general, pIC50 refers to the IC50 on a negative log10 scale, so that one unit is a factor of ten. For orientation: pEC50 means the EC50 on a negative log10 scale, so that one unit is a factor of ten. Broadly, the logD is the decadic logarithm of the distribution of all forms, ionised or not, between an organic phase and buffer at a given pH. A word on the half-life: it is how long it takes for the measured level to halve. For orientation: bioavailability means the share of a dose that reaches the circulation, judged against a reference dose that is usually intravenous.

Series [1] in a line: Induction of phospholidosis in human HepG2 cells incubated overnight by […] in presence of fluorescent labeled phospholipid probe NBD-PE. It is filed as cell-based. As to conditions: read-out: A50.
Series [2] concerns the target Sodium-dependent serotonin transporter (Homo sapiens, UniProt P31645). As to the kind of experiment: Inhibition of human SERT expressed in HEK293 cells preincubated for 30 mins followed by fluorescent substrate addition measured after 30 mins by plate reader analysis. It is filed as cell-based.
In series [3] the target is Sodium channel protein type 2 subunit alpha (Homo sapiens, UniProt Q99250). As to the kind of experiment: Inhibition of human Nav1.2 channel expressed in Xenopus oocytes by two-intracellular microelectrode voltage clamp method. It is filed as cell-based.
For series [4], the target named is Voltage-dependent L-type calcium channel subunit alpha-1C (Homo sapiens, UniProt Q13936). As to the kind of experiment: Displacement of [3H]-diltiazem from human Cav1.2 channel. Background: Displacement assays read how much labelled ligand stays bound in the presence of the test substance.
For series [5], the target named is Voltage-gated inwardly rectifying potassium channel KCNH2 (Homo sapiens, UniProt Q12809). As to the kind of experiment: Binding affinity to human ERG channel.
The target in series [6] is T1, Beta-3 adrenergic receptor (Homo sapiens, UniProt P13945). As to the kind of experiment: Agonist activity at human beta3 adrenergic receptor expressed in CHO cells assessed as accumulation of cAMP after 30 mins by TR-FRET assay relative to (R)-(-)-isoproterenol. It is filed as functional, cell-based. For orientation: TR-FRET usually uses a lanthanide donor and a delayed reading to cut background.
Target sequence in this assay (P13945 whole entry, looked up): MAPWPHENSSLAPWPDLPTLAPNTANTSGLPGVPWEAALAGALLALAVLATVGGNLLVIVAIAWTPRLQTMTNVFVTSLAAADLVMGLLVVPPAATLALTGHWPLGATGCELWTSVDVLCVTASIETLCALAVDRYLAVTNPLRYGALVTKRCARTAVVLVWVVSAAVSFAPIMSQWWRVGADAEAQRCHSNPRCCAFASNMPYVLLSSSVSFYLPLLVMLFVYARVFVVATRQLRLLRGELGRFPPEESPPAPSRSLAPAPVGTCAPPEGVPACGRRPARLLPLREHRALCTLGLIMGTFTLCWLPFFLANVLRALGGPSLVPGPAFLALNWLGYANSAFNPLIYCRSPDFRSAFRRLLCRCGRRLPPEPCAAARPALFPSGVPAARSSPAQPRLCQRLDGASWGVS

Series [7] deals with T1, Beta-3 adrenergic receptor. As to the kind of experiment: Agonist activity at human beta3 adrenergic receptor expressed in CHO cells assessed as accumulation of cAMP after 30 mins by TR-FRET assay. It is filed as functional, cell-based.
Target sequence in this assay (P13945 whole entry): as the sequence (P13945 whole entry, looked up) above
In series [8] the target is Beta-2 adrenergic receptor (Homo sapiens, UniProt P07550).
Description: Displacement of [125]I-cyanopindolol from human recombinant beta2 adrenergic receptor after 1 hr by scintillation counting method
Series [9] has as its target Beta-1 adrenergic receptor (Homo sapiens, UniProt P08588).
Description: Displacement of [125]I-cyanopindolol from recombinant human beta1 adrenergic receptor after 1 hr by scintillation counting method
The subject of series [10] is Rattus norvegicus. As to the kind of experiment: Increase in circulating glycerol level in iv infused Sprague-Dawley rat after 45 mins by liquid chromatography-tandem mass spectrometric analysis. It is filed as functional.
Series [11] deals with Rattus norvegicus. As to the kind of experiment: Increase in circulating free fatty acid level in iv infused Sprague-Dawley rat after 45 mins by liquid chromatography-tandem mass spectrometric analysis. It is filed as functional.
Series [12] is described as follows: Distribution coefficient, logD of the compound at pH 7.4. Particulars: octanol/water. It is filed as physicochemical.
In the next series the target is Cytochrome P450 3A4 (Homo sapiens, UniProt P08684). As to the kind of experiment: Inhibition of CYP3A4 in human liver microsomes assessed as testosterone 6beta-hydroxylation. It is filed as ADME. (Liver microsomes are a subcellular fraction often used to study metabolism.)
The target in a further series is Cytochrome P450 2D6 (Homo sapiens, UniProt P10635). As to the kind of experiment: Inhibition of CYP2D6 in human liver microsomes assessed as dextraomethorphan O-demethylation. It is filed as ADME.
The target of another series is Cytochrome P450 2C9 (Homo sapiens, UniProt P11712). As to the kind of experiment: Inhibition of CYP2C9 in human liver microsomes assessed as diclofenac alpha'-hydroxylation. It is filed as ADME.
Series [13] in a line: Plasma clearance in rat at 1 mg/kg, iv or 2 mg/kg, po. It is filed as ADME, organism-based.
A short description of series [14]: Half life in rat at 1 mg/kg, iv or 2 mg/kg, po. It is filed as ADME, organism-based. As to conditions: in vivo.
The subject of series [15] is Rattus norvegicus. As to the kind of experiment: Dose normalized total AUC in rat at 2 mg/kg, po. It is filed as ADME, organism-based. As to conditions: in vivo.
Series [16] can be described thus: Oral bioavailability in rat at 2 mg/kg. It is filed as ADME, organism-based. Particulars: in vivo.
The nature of series [17]: Stability in human plasma assessed as parent compound remaining at 24 hrs by LC-MS analysis. It is filed as ADME, cell-free. As to conditions: read-out: Stability.
Series [18] is described as follows: Stability in rat plasma assessed as parent compound remaining at 24 hrs by LC-MS analysis. It is filed as ADME, cell-free. As to conditions: read-out: Stability.
The nature of series [19]: Stability in dog plasma assessed as parent compound remaining at 24 hrs by LC-MS analysis. It is filed as ADME, cell-free, Canis lupus familiaris. Particulars: read-out: Stability.
The nature of series [20]: Stability in rhesus monkey plasma assessed as parent compound remaining at 24 hrs by LC-MS analysis. It is filed as ADME, cell-free, Macaca mulatta. As to conditions: read-out: Stability.

Chain of Voltage-gated inwardly rectifying potassium channel KCNH2 (Q12809 whole entry): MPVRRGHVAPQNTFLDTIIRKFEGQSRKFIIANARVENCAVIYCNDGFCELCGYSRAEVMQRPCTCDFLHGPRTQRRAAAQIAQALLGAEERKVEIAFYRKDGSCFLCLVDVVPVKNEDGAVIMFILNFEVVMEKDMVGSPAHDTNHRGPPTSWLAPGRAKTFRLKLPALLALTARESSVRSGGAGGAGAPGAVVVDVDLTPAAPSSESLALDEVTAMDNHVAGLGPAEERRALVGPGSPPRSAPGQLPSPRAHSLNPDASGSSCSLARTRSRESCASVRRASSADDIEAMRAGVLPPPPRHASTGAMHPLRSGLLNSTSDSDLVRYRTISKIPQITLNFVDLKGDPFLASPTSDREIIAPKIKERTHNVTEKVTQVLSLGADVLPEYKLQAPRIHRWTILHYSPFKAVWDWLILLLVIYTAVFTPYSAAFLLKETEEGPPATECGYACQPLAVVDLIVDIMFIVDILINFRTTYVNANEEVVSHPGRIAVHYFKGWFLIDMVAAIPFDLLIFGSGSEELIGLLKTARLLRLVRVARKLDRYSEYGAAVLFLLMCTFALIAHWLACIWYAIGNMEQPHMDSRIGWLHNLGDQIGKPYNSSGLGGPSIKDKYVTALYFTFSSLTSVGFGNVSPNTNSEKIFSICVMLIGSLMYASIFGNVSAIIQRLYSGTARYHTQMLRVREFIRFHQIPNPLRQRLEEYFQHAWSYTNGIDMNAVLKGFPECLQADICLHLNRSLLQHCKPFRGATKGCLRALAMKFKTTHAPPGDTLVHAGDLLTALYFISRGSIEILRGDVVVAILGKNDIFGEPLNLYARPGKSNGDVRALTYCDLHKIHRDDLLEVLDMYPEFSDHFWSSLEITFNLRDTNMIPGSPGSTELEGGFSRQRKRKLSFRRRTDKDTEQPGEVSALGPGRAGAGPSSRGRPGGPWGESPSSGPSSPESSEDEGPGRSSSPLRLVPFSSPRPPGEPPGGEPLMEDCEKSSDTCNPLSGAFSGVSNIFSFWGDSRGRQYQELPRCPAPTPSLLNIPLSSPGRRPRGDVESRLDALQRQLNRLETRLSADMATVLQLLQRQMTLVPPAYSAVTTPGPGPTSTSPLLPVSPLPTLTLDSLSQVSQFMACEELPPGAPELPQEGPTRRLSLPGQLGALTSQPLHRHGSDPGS
Chain of Sodium channel protein type 2 subunit alpha (Q99250 whole entry, looked up): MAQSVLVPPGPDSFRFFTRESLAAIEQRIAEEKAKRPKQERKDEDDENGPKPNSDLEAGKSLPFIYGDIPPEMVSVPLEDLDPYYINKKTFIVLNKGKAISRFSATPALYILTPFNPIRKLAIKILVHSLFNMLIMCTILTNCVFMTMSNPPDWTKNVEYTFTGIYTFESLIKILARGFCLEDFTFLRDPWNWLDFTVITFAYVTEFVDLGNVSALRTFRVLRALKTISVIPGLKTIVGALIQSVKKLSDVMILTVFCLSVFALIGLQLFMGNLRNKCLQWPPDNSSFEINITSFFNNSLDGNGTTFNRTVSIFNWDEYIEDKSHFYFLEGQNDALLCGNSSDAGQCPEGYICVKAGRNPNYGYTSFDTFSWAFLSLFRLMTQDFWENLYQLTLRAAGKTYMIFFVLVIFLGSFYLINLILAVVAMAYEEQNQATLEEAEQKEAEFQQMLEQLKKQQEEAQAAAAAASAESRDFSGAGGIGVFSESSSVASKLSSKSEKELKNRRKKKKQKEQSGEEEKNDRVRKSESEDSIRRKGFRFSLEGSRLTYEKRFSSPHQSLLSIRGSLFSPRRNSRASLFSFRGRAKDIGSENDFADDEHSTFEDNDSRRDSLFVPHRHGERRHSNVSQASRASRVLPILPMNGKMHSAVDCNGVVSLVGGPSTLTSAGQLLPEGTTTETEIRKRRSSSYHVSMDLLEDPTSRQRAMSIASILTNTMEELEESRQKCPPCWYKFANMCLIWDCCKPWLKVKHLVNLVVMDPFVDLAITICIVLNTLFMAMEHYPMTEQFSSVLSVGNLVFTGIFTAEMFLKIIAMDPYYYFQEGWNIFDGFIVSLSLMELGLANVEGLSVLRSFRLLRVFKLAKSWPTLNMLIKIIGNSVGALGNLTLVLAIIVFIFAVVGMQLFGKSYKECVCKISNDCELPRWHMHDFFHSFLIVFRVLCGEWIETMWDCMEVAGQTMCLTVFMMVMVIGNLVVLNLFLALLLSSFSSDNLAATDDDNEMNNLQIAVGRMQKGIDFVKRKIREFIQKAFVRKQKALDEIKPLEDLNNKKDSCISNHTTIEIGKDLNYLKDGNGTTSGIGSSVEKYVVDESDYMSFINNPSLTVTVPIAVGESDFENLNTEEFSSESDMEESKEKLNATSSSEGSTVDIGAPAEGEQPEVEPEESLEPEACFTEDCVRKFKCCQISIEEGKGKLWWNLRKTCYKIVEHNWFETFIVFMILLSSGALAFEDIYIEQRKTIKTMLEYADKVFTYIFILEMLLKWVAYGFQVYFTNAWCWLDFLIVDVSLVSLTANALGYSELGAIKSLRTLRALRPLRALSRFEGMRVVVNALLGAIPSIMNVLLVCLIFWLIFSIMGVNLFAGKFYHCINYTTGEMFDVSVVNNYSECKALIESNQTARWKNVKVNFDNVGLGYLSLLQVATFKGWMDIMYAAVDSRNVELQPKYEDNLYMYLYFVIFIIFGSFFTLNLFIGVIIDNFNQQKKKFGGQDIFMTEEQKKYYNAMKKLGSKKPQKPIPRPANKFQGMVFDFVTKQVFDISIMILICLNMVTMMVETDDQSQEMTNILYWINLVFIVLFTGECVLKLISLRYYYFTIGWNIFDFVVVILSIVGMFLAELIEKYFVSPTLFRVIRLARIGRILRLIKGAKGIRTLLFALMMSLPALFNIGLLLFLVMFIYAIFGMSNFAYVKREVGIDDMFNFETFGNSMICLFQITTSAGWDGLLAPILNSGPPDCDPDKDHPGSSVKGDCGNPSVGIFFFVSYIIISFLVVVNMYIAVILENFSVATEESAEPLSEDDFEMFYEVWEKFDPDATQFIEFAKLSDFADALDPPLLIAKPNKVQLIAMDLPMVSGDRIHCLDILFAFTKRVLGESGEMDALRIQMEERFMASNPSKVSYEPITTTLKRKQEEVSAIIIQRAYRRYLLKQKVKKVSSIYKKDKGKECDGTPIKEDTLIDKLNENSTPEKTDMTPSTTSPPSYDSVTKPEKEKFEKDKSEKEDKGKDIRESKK
Chain of Sodium-dependent serotonin transporter (P31645 whole entry): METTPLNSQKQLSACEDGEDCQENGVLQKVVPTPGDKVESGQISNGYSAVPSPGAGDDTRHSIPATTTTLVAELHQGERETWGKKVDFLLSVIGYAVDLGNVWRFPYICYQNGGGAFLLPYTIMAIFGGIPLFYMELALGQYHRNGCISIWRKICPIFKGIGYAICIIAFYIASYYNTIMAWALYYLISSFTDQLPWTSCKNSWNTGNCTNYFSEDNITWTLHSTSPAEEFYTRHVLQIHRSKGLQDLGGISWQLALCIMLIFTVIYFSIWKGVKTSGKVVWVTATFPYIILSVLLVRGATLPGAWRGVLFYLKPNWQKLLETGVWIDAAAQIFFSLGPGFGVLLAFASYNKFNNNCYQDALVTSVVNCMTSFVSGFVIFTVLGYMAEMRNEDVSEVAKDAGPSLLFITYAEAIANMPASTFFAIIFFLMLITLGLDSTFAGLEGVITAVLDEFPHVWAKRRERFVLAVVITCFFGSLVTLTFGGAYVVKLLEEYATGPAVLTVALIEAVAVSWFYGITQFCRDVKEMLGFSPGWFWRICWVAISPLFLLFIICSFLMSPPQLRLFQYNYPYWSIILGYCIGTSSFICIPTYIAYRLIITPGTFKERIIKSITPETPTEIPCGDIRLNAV
Chain of Beta-1 adrenergic receptor (P08588 whole entry, the tested form may be a part): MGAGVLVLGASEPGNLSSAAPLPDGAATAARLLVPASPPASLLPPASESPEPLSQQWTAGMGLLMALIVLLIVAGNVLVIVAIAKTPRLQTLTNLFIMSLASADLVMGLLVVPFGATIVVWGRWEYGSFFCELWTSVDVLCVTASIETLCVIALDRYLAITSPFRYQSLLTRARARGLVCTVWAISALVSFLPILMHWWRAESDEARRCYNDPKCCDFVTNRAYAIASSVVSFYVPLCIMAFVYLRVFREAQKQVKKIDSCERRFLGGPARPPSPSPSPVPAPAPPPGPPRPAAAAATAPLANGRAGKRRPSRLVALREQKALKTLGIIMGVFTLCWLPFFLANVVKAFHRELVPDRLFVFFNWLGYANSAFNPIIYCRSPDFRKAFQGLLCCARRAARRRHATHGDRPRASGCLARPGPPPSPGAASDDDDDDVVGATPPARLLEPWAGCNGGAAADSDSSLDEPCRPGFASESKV

For `O=C(Cn1cnccc1=O)Nc1ccc(C[C@@H]2CC[C@H]([C@H](O)c3ccccc3)N2)cc1`, the AC50 in series [1] is > 100 µM. Moreover, the pIC50 in series [2] was 6.15; in series [3], < 4.52; in series [4], < 4.52; in series [5], < 4.52; in series [8], < 4.70; in [9] it was < 4.70. Further, the max activation in series [6] was 91%. Besides, in [7], the pEC50 was 8.41.

Regarding `O=C(Cn1ccccc1=O)Nc1ccc(C[C@@H]2CC[C@H]([C@H](O)c3ccccc3)N2)cc1`, the AC50 in [1] was > 100 µM. For the same compound, the negative-log IC50 (pIC50) in series [2] is 5.96; in [3], < 4.52; in series [4], < 4.52; in series [5], < 4.52; in series [8], < 4.70; in series [9], < 4.70. The max activation in [6] turned out to be 97%. In addition, the pEC50 in series [7] was 8.37.

Regarding `Nc1nc(CC(=O)Nc2ccc(CCNC[C@H](O)c3ccccc3)cc2)cs1` [MIRABEGRON], the Activity entry with Rattus norvegicus [10] and in the series on Rattus norvegicus [11] was “Dose-dependent effect” each time. Moreover, the minimal effective dose was 0.3 mg/kg in the series with Rattus norvegicus [10] (0.75 h, read-out: MED) and 0.3 mg/kg in the series with Rattus norvegicus [11] (0.75 h, read-out: MED).

For `O=C(Cn1cnc2ccccc2c1=O)Nc1ccc(C[C@@H]2CC[C@H]([C@H](O)c3ccccc3)N2)cc1`, the AC50 in [1] worked out at 8.6 µM. In addition, the pIC50 in series [2] was 6.70; in [3], < 4.52; in [4], 4.89; on Cytochrome P450 3A4, 4.02; on Cytochrome P450 2D6 it was 4.51; on Cytochrome P450 2C9, < 4.00. Moreover, the results for the pIC50 in series [8] and in series [9] were 5.66 and < 4.70, respectively. For the same compound, the logD in [12] was determined as 2. In addition, the max activation in [6] stood at 108%. Moreover, the pEC50 in [7] was 8.77.

For the compound `Nc1nc(CC(=O)Nc2ccc(C[C@@H]3CC[C@H]([C@H](O)c4ccccc4)N3)cc2)cs1`, the pIC50 in series [2] is 5.85; in [3] it was 4.52; in series [5] it was 4.72; in series [8], < 4.70; in [9], < 4.70. The pH-dependent lipophilicity (logD) in series [12] came out at 1.2. In addition, the max activation in series [6] amounted to 92%. In addition, the pEC50 in [7] is 9.05.

Regarding `O=C(Cn1cccnc1=O)Nc1ccc(C[C@@H]2CC[C@H]([C@H](O)c3ccccc3)N2)cc1`, the AC50 in [1] was > 100 µM. Also, the pIC50 in series [2] was 5.60; in [3], < 4.52; in series [4], < 4.52; in series [5], < 4.52; on Cytochrome P450 3A4, < 4.00; on Cytochrome P450 2D6 it was 4.41. Further, the pIC50 at Cytochrome P450 2C9 is < 4.00; in series [8], < 4.70; in series [9] it was < 4.70. In series [12], this compound registered a logD of 0.6. For the same compound, in [6], the max activation was determined as 113%. Further, the pEC50 in series [7] is 8.66. This compound came in with a clearance in series [13] of 24 mL/min/kg. In addition, in series [14], the half-life is 180 min. The compound further displayed an AUC/dose in the series with Rattus norvegicus [15] of 24 nM·h/mg/kg. In [16], this compound returned a bioavailability of 1%.

For `C[C@@H](C(=O)Nc1ccc(C[C@@H]2CC[C@H]([C@H](O)c3cccnc3)N2)cc1)n1ncccc1=O`, the AC50 in series [1] is > 100 µM. Moreover, the pIC50 in [2] is 6.10; in series [3] it was < 4.52; in [4], < 4.52; in series [5], < 4.52; in series [8], < 4.70; in [9] it was < 4.70. In series [6], the max activation amounted to 87%. For the same compound, the pEC50 in series [7] is 8.59. The clearance in [13] is 12 mL/min/kg. The half-life in series [14] is 480 min. Besides, the AUC/dose entry in the series on Rattus norvegicus [15] (BLD = below limit of detection) is “BLD”. The bioavailability in series [16] was < 1%.

As to `O=C(Nc1ccc(C[C@@H]2CC[C@H]([C@H](O)c3cccnc3)N2)cc1)[C@@H]1CCc2scnc21`, in series [1], the AC50 was 79 µM. The compound also showed a logD in [12] of 1.1. The max activation in series [6] stood at 82%. For the same compound, the remaining at 24 h in series [17] worked out at 1%; in series [18] it was 79%.

For the compound `O=C(Nc1ccc(C[C@@H]2CC[C@H]([C@H](O)c3cccnc3)N2)cc1)[C@@H]1CCc2ccnn21`, in series [1], the AC50 worked out at 94 µM. Further, the logD in series [12] is 0.9. Besides, in [6], the max activation was 84%. The remaining at 24 h in [17] is 0%; in [18], 97%; in [19], 100%; in series [20], 87%.
